From patent US7618975B2, “4-arylamino-quinazolines and analogs as activators of caspases and inducers of apoptosis and the use thereof” (Myriad Pharmaceuticals, Inc., priority 2003, dated 2009) come the findings set out here.

Test [1] has as its system T-47D cells. As to the kind of experiment: Caspase cascade activation (N-(Ac-DEVD)-N′-ethoxycarbonyl-R110 fluorogenic substrate) in T-47D cells. The following applies: for EC50: Homo sapiens, T47D. The format is cell-based, Human.
Another test concerns H1299 cells. As to the kind of experiment: Inhibition of cell proliferation (GI50, CellTiter-Glo). The following applies: Homo sapiens, NCI-H1299; 48 h incubation. The format is cell-based. Here is the method: (§1) T-47D, DLD, H1299, MX-1 and SW620 cells were grown and harvested as in Example 143. […] An aliquot of 45 μL of cells was added to a well of a 96-well microtiter plate containing 5 μL of a 10% DMSO in RPMI-1640 media solution without compound as the control sample for maximal cell proliferation (LMax). The samples were mixed by agitation and then incubated at 37° C. for 48 h in a 5% CO2-95% humidity incubator. After incubation, the samples were removed from the incubator and 25 μL of CellTiter-Glo™ reagent (Promega) was added. The samples were mixed by agitation and incubated at room temperature for 10-15 min. Plates were then read using a luminescent plate reader (Model SPECTRAfluor Plus, Tecan) to give Ltest values.
(§2) The samples were mixed by agitation and then incubated at 37° C. for 0.5 h in a 5% CO2-95% humidity incubator. After incubation, the samples were removed from the incubator and 25 μL of CellTiter-Glo™ reagent (Promega) was added. The samples were mixed by agitation and incubated at […] 10-15 min at room temperature in a 5% CO2-95% humidity incubator. Fluorescence was read as above, (LStart) defining luminescence for initial cell number used as baseline in GI50 determinations.

The subject of a further test is SW620 cells. Described as above. Conditions: Homo sapiens, SW-620; 48 h incubation. Format: cell-based. Here is the method: as §1, §2
The subject of another test is DLD cells. The description is as above. The format is cell-based. Conditions: Homo sapiens; 48 h incubation. Here is the method: as §1, §2
The subject of another test is MX-1 cells. The test is described as above. Format: cell-based. Conditions: Homo sapiens, MX1; 48 h incubation. The method, then: as §1, §2
Test [2] has as its system T-47D cells. The description is as above. The format is cell-based. Conditions: Homo sapiens, T47D; 48 h incubation. Here is the method:
as §1, §2

Test [3] has as its system tubulin (Cytoskeleton #ML113, MAP-rich). As to the kind of experiment: Inhibition of tubulin polymerization (DAPI fluorescence). The format is biochemical. The following applies: 30 minutes preincubation, 30 minutes at 37° C. The method, then:
Lyophilized tubulin (Cytoskeleton #ML113, 1 mg, MAP-rich) was assayed for the effect of the test compound on tubulin polymerization as measured by change in fluorescence for 4′,6-diamidino-2-phenylindole (DAPI) (Barron, D. M. et al. Analytical Biochem., 2003, 315, 49-56.). 1 μl of serial dilutions of each test compound (from 100×DMSO stock) was added in 96 well plate format and preincubated for 30 minutes with 94 ul of the non-GTP supplemented tubulin supernatant. 5 μl of DAPI/GTP solution was added to initiate polymerization and incubated for 30 minutes at 37° C. Fluorescence was read with excitation 350 nm, emission wavelength 485 nm on a Tecan Spectraflour Plus. Polymerized tubulin (DMSO and with the tubulin stabilizer Taxol® (paclitaxel)) gives a higher DAPI fluorescence as compared to non-polymerized tubulin (vinblastine and colchicine used to determine baseline).

pIC50: −log10 of the molar value. Like-named read-outs stand apart in the source and are kept apart here.

What is called EC50 is the concentration at which the effect is half-maximal. In general, GI50 refers to the concentration at which growth is held to half of that of the control. By pIC50 is commonly meant the IC50 on a negative log10 scale, so that one unit is a factor of ten. Low values mean a large IC50, high ones a small IC50. Turning to `COc1ccc(N(C)c2ncnc3ccccc23)cc1` [Example 34, (4-Methoxy-phenyl)-methyl-quinazolin-4-yl-amine], the 50% effective concentration (EC50) in the test on T-47D cells [1] (T-47D, 24 hr, read-out: Caspase potency EC50 (nM) T-47D (24 hr)) turned out to be 7 nM; in the test on T-47D cells [1] (Table III, time not printed (values repeat Table I 24 hr or 48 hr), read-out: Caspase activation (EC50 nM)) it was 7 nM. In the test with T-47D cells [1] (T-47D, 24 hr, ratio of net RFU to control), the “Caspase activity Ratio T-47D (24 hr)” value was 7.5. The GI50 was determined as 59 nM in the test with H1299 cells; 55 nM in the test on SW620 cells; 76 nM with DLD cells; 73 nM in the test on MX-1 cells; 503 nM in the test with T-47D cells [2]. Further, the pIC50 in test [3] is 6.00.
